Measured values from patent publication US10538571B2, “Compositions and methods for neurological diseases” (Coda Biotherapeutics, Inc., priority 2017, dated 2020).

How the values were obtained:
Type in all cases: cell-based
[1] = target: T1, SEQ ID NO:33 with substitution S172D (Homo sapiens, UniProt P36544, F159M/H163T/I152M/R155K/S172D/V154L/W156N/Y151P); assay: Electrophysiology, automated patch clamp in HEK293T cells; settings: FIG. 10B
T1 construct: expressed in transfected cells; host or cells: Lenti-X 293T (HEK293T) cells, pcDNA3.1(+) plasmid
T1 sequence (P36544 with tags, fused parts or gaps Y151P/I152M/V154L/R155K/W156N/F159M/H163T/S172D): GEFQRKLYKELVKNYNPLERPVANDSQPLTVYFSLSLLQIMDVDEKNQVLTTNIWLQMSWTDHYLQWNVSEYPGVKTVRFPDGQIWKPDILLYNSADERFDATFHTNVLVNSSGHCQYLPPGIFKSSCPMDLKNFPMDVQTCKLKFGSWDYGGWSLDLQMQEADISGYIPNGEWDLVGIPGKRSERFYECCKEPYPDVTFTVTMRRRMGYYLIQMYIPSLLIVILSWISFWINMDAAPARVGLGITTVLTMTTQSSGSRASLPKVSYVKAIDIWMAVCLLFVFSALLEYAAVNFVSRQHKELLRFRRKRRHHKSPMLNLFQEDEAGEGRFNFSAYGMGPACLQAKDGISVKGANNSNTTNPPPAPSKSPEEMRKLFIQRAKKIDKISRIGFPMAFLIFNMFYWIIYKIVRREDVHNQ
Method: (§1) For HEK293T studies, cDNAs encoding ion channels were cloned into pcDNA3.1 using standard recombination techniques. HEK293T cells from Clontech (Lenti-X™ 293T Cell Line) were cultured in DMEM supplemented with 10% FBS and 1% Pen/Strep to 40-50% confluence using standard cell culture protocols, transfected with ion channel plasmids at a concentration of 18 μg per 15 cm dish using Fugene 6, and grown for an additional 24 hours. Cells were then assayed on a medium throughput electrophysiological system (IonFluxHT and/or Mercury, Fluxion Biosciences) in which dose-response relationships may be assessed through a microfluidics-based platform for establishing whole cell configurations. Ensemble plates were primed with extracellular buffer (140 mM NaCl, 5 mM KCl, 2 mM CaCl2, 1 mM MgCl2, 10 mM HEPES, and 10 mM glucose, pH 7.2 with NaOH, mOsm 310), intracellular buffer (145 mM CsCl, 2 mM CaCl2, 2 mM MgCl2, 10 mM HEPES, and 10 mM EGTA, pH 7.2 with CsOH, mOsm 305), as adapted from Lynagh and Lynch, and test compounds (stocks prepared fresh) diluted in extracellular buffer. Cells were then released from the plate with Accutase, centrifuged, resuspended in extracellular buffer, and loaded into Ensemble plates. Cells were then subjected to a standard protocol for priming, trapping, breaking, and establishing whole cell configuration, with cells held at −60 mV throughout the recording. After recording baseline, progressive doses of test compounds were applied using the IonFlux software to assess dose response relationships. Data were then analyzed off-line using custom Python scripts to convert data to .csv format, re-plot traces, and apply QC measurements to reject unstable recordings (i.e. thresholding based on access resistance and/or standard deviation in baseline, as well as artifact rejection). Peak currents were then calculated and population data were fit using a 4-parameter logistic equation as described by the Hill Equation

[2] = target: T2, SEQ ID NO:33 with substitution L131S (Homo sapiens, UniProt P36544, F159M/H163T/I152M/L131S/R155K/V154L/W156N/Y151P); assay: as above; settings: FIG. 10A
T2 construct: expressed in transfected cells; host or cells: Lenti-X 293T (HEK293T) cells, pcDNA3.1(+) plasmid
T2 sequence (P36544 with tags, fused parts or gaps L131S/Y151P/I152M/V154L/R155K/W156N/F159M/H163T): as the sequence (P36544 with tags, fused parts or gaps Y151P/I152M/V154L/R155K/W156N/F159M/H163T/S172D) above, with L109S, D150S counted along it
Method: as §1

[3] = target: T3, SEQ ID NO:33 with substitution L131T (Homo sapiens, UniProt P36544, F159M/H163T/I152M/L131T/R155K/V154L/W156N/Y151P); assay: as above; settings: FIG. 10D
T3 construct: expressed in transfected cells; host or cells: Lenti-X 293T (HEK293T) cells, pcDNA3.1(+) plasmid
T3 sequence (P36544 with tags, fused parts or gaps L131T/Y151P/I152M/V154L/R155K/W156N/F159M/H163T): as the sequence (P36544 with tags, fused parts or gaps Y151P/I152M/V154L/R155K/W156N/F159M/H163T/S172D) above, with L109T, D150S counted along it
Method: as §1

[4] = target: T4, SEQ ID NO:33 with substitution W77M (Homo sapiens, UniProt P36544, F159M/H163T/I152M/R155K/V154L/W156N/W77M/Y151P); assay: as above; settings: FIG. 10C
T4 construct: expressed in transfected cells; host or cells: Lenti-X 293T (HEK293T) cells, pcDNA3.1(+) plasmid
T4 sequence (P36544 with tags, fused parts or gaps W77M/Y151P/I152M/V154L/R155K/W156N/F159M/H163T): as the sequence (P36544 with tags, fused parts or gaps Y151P/I152M/V154L/R155K/W156N/F159M/H163T/S172D) above, with W55M, D150S counted along it
Method: as §1

[5] = target: T5, engineered chimeric LGIC receptor SEQ ID NO:41 (Homo sapiens, UniProt P36544, F159M/H163T/I152M/K68T/N69T/Q70M/R155K/V154L/W156N/Y151P); assay: Plate reader YFP quench plots; settings: FIG. 7
T5 construct: expressed in transfected cells; host or cells: Lenti-X 293T cells stably expressing YFP (H148Q/I152L) reporter; pcDNA3.1(+) plasmid
T5 sequence (P36544 with tags, fused parts or gaps K68T/N69T/Q70M/Y151P/I152M/V154L/R155K/W156N/F159M/H163T): as the sequence (P36544 with tags, fused parts or gaps Y151P/I152M/V154L/R155K/W156N/F159M/H163T/S172D) above, with K46T, N47T, Q48M, D150S counted along it
Method: Lenti-X 293T cells (LX293T, Clontech) were maintained in DMEM containing 10% FBS and 1% penicillin/streptomycin (Invitrogen). […] The next day, the cells were transiently transfected with 0.1 μg of DNA per well using standard Fugene protocol (Promega). On the day of assay, cells were washed 2 times in 1× extracellular solution (1×ECS: 140 mM NaCl, 5 mM KCl, 1 mM MgCl2, 2 mM CaCl2, 10 mM HEPES, 10 mM glucose, pH 7.2, mOsms 300). After the last wash, 100 μL of 1×ECS was added to the wells and the plate was incubated at 37° C. for 30 min. While incubating the plate, the drugs were diluted to a 2× concentration in 1×ECS-NaI (same components as 1×ECS except the 140 mM NaCl was replaced by 140 mM NaI). The plates were then read on a Flexstation3 (Molecular Devices). Each well, 8 wells at a time, of the plate is read for 2 min using a Flexstation3 (Molecular Devices) as follows: 1) a baseline YFP fluorescence is read for 17 sec, 2) 100 μL of ligand is added, and 3) the changes in YFP fluorescence are then measured every 1.3 sec for the remaining time.
To further tune the responsiveness of the engineered LGIC receptors to native and non-native ligands, the binding pocket of each ligand in the alpha7-nAChR was modeled and the amino acid residues that form the binding pocket were mapped. […]

## c1cnc2c(c1)C[C@@]1(CN3CCC1CC3)O2 [AZD-0328]
[1]
  right-ward shift in EC50 relative to parental chimera SEQ ID NO:33: 2 fold
[2]
  right-ward shift in EC50 relative to parental chimera SEQ ID NO:33: 2 fold
[3]
  right-ward shift in EC50 relative to parental chimera SEQ ID NO:33: ~1 log
[4]
  right-ward shift in EC50 relative to parental chimera SEQ ID NO:33: > 2.5 log
[5]
  response of Chimera #41 compared with Chimera #33: responds to lower doses
